Reference: ChEMBL document CHEMBL4392848, “Proline-based hydroxamates targeting the zinc-dependent deacetylase LpxC: Synthesis, antibacterial properties, and docking studies” (Bioorg Med Chem, 2019)
In brackets after ≈: the same amount, converted by molar mass.

Key:
Collagenase 3 = Collagenase 3 (Homo sapiens, UniProt P45452); assay: Inhibition of human MMP13 using (7-methoxycoumarin-4-yl)acetyl-Pro-Leu-Gly-Leu-(3-(2,4-dinitrophenyl)-L-2,3-diamino-propionyl)Ala-Arg-NH2 as substrate preincubated for 30 mins followed by substrate addition and measured by fluorescence assay
[1] = biological target: Matrix metalloproteinase-9 (Homo sapiens, UniProt P14780); assay: Inhibition of human MMP9 using (7-methoxycoumarin-4-yl)acetyl-Pro-Leu-Gly-Leu-(3-(2,4-dinitrophenyl)-L-2,3-diamino-propionyl)Ala-Arg-NH2 as substrate preincubated for 30 mins followed by substrate addition and measured by fluorescence assay
Chain of Matrix metalloproteinase-9 (P14780 whole entry): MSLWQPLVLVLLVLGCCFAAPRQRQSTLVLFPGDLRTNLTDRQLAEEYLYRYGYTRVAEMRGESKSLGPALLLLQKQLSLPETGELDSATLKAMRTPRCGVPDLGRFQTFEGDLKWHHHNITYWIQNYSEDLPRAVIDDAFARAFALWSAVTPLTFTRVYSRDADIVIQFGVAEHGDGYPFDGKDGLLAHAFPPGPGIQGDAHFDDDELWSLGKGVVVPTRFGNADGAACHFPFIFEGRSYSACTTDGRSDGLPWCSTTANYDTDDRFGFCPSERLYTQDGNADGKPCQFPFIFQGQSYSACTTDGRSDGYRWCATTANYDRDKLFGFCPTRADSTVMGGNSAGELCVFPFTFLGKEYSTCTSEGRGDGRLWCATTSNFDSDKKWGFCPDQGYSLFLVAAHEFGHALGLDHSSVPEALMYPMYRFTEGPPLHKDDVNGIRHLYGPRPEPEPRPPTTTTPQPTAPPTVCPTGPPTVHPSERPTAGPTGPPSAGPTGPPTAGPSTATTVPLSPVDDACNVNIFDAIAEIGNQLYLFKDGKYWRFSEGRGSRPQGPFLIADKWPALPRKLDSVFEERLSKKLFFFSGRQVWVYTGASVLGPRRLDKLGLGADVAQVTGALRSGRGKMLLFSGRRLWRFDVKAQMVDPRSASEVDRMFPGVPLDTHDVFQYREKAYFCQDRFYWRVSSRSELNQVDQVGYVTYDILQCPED

[2] = biological target: 72 kDa type IV collagenase (Homo sapiens, UniProt P08253); assay: Inhibition of human MMP2 using (7-methoxycoumarin-4-yl)acetyl-Pro-Leu-Gly-Leu-(3-(2,4-dinitrophenyl)-L-2,3-diamino-propionyl)Ala-Arg-NH2 as substrate preincubated for 30 mins followed by substrate addition and measured by fluorescence assay
Chain of 72 kDa type IV collagenase (P08253 whole entry): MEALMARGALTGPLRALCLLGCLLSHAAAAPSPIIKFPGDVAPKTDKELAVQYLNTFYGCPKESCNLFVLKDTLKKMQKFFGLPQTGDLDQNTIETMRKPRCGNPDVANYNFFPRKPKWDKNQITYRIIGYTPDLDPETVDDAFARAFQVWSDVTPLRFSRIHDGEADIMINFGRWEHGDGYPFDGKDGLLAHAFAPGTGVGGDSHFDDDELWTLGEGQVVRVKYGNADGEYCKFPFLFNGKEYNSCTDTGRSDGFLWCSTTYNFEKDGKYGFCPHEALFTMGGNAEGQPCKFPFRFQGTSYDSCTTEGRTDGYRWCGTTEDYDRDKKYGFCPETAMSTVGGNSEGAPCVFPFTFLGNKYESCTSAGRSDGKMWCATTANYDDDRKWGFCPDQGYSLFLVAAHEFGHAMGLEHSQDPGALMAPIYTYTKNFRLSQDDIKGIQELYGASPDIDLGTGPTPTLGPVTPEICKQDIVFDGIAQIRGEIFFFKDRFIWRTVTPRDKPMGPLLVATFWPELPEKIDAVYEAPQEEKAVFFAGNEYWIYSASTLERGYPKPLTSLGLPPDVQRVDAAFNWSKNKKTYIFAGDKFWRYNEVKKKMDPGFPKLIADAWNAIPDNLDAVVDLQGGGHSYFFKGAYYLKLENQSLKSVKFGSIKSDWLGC

Neutrophil collagenase = Neutrophil collagenase (Homo sapiens, UniProt P22894); assay: Inhibition of human MMP8 using (7-methoxycoumarin-4-yl)acetyl-Pro-Leu-Gly-Leu-(3-(2,4-dinitrophenyl)-L-2,3-diamino-propionyl)Ala-Arg-NH2 as substrate preincubated for 30 mins followed by substrate addition and measured by fluorescence assay
Chain of Neutrophil collagenase (P22894 whole entry, the tested form may be a part): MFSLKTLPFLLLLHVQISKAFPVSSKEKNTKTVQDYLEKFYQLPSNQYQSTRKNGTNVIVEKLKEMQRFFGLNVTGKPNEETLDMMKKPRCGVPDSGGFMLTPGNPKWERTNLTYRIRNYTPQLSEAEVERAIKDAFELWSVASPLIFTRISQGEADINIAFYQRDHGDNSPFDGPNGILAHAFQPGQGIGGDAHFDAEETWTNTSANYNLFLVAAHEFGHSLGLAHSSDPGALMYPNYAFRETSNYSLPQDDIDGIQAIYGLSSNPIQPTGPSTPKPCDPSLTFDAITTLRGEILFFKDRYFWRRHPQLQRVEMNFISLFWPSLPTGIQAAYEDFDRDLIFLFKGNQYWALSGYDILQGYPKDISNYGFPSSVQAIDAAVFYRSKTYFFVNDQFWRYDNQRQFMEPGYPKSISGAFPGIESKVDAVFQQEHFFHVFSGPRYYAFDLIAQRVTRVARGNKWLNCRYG

Escherichia coli [3] = assay: Antibacterial activity against Escherichia coli D22 assessed as diameter of inhibition zone measured after overnight incubation by agar disc diffusion method; type: functional; further: test concentration or dose not given here
Escherichia coli [4] = assay: Antibacterial activity against Escherichia coli BL21(DE3) assessed as diameter of inhibition zone measured after overnight incubation by agar disc diffusion method; type: functional; further: test concentration or dose not given here
Escherichia coli [5] = assay: Antibacterial activity against Escherichia coli D22 measured after 20 hrs by microdilution method; type: functional; details: D22, 20 h
Escherichia coli [6] = assay: Antibacterial activity against Escherichia coli BL21(DE3) measured after 20 hrs by microdilution method; type: functional
[7] = Inhibition of Escherichia coli LpxC C63A mutant using UDP-3-O-[(R)-3-hydroxymyristoyl]-N-acetylglucosamine as substrate measured after 30 mins by fluorescence based microplate assay
Pseudomonas aeruginosa = assay: Antibacterial activity against Pseudomonas aeruginosa assessed as diameter of inhibition zone measured after 24 hrs by agar disc diffusion method; type: functional; further: test concentration or dose not given here
Proteus mirabilis = assay: Antibacterial activity against Proteus mirabilis assessed as diameter of inhibition zone measured after 24 hrs by agar disc diffusion method; type: functional; further: test concentration or dose not given here
Klebsiella oxytoca = assay: Antibacterial activity against Klebsiella oxytoca assessed as diameter of inhibition zone measured after 24 hrs by agar disc diffusion method; type: functional; further: test concentration or dose not given here
Enterobacter cloacae = assay: Antibacterial activity against Enterobacter cloacae assessed as diameter of inhibition zone measured after 24 hrs by agar disc diffusion method; type: functional; further: test concentration or dose not given here
Klebsiella aerogenes = assay: Antibacterial activity against Enterobacter aerogenes assessed as diameter of inhibition zone measured after 24 hrs by agar disc diffusion method; type: functional; further: test concentration or dose not given here
Proteus vulgaris = assay: Antibacterial activity against Proteus vulgaris assessed as diameter of inhibition zone measured after 24 hrs by agar disc diffusion method; type: functional; further: test concentration or dose not given here
Klebsiella pneumoniae = assay: Antibacterial activity against Klebsiella pneumoniae assessed as diameter of inhibition zone measured after 24 hrs by agar disc diffusion method; type: functional; further: test concentration or dose not given here
Citrobacter freundii = assay: Antibacterial activity against Citrobacter freundii assessed as diameter of inhibition zone measured after 24 hrs by agar disc diffusion method; type: functional; further: test concentration or dose not given here

SMILES	IC50 (Collagenase 3)	IC50 [1]	IC50 [2]	IC50 (Neutrophil collagenase)	diameter of the inhibition zone (DIZ) (Escherichia coli [3])	diameter of the inhibition zone (DIZ) (Escherichia coli [4])	MIC (Escherichia coli [5])	MIC (Escherichia coli [6])	IC50 [7]	Ki [7]	diameter of the inhibition zone (DIZ) (Pseudomonas aeruginosa)	diameter of the inhibition zone (DIZ) (Proteus mirabilis)	diameter of the inhibition zone (DIZ) (Klebsiella oxytoca)	diameter of the inhibition zone (DIZ) (Enterobacter cloacae)	diameter of the inhibition zone (DIZ) (Klebsiella aerogenes)	diameter of the inhibition zone (DIZ) (Proteus vulgaris)	diameter of the inhibition zone (DIZ) (Klebsiella pneumoniae)	diameter of the inhibition zone (DIZ) (Citrobacter freundii)
O=C(NO)[C@@H]1C[C@H](O)CN1C(=O)c1ccc(C#Cc2ccc(OCCCCCF)cc2)cc1	0.07 nM	0.108 µM	0.005 µM	0.021 µM	<6 mm	<6 mm	> 256 µM	> 256 µM										
O=C(NO)[C@@H]1CCCN1Cc1ccc(C#Cc2ccc(CN3CCOCC3)cc2)cc1	939 nM	> 10 µM	3 µM	5 µM	25 mm	15 mm	4 µM (≈ 1.68 µg/mL)	128 µM (≈ 53.7 µg/mL)	10.5 µM	1.4 µM	<6 mm	18 mm	13 mm	20 mm	18 mm	12 mm	20 mm	16 mm
O=C(NO)[C@H]1CCCN1C(=O)c1ccc(C#Cc2ccc(CN3CCOCC3)cc2)cc1	636 nM	0.731 µM	0.503 µM	0.05 µM	24.7 mm	11.3 mm	8 µM (≈ 3.47 µg/mL)	> 256 µM	63.4 µM	8.7 µM	<6 mm	9 mm	8 mm	9 mm	9 mm	<6 mm	11 mm	12 mm
CC1(C)O[C@@H]2[C@@H](CN(C(=O)c3ccc(C#Cc4ccc(CN5CCOCC5)cc4)cc3)[C@H]2C(=O)NO)O1	> 10000 nM	> 10 µM	3 µM		10 mm	9 mm	256 µM (≈ 129 µg/mL)	> 256 µM	> 200 µM	> 27.6 µM	<6 mm	8 mm	8 mm	<6 mm	8 mm	<6 mm	8 mm	11 mm
